According to patent US6670144B1 (priority 1999, dated 2003):
Where no end group is shown, it is not given here.

Assays:
Chk1 protein kinase [1] = biological target: T1, Chk1 protein kinase (Homo sapiens, UniProt O14757); settings: EDTA 1 mM, 5 mM or 20 mM added before 21 mU Chk1; FIG. 11
Chk1 protein kinase [2] = biological target: T1, Chk1 protein kinase; settings: EDTA 10 mM or 20 mM added prior to enzyme addition; FIG. 8
[3] = biological target: Yersinia protein tyrosine phosphatase (YOP) (Yersinia enterocolitica, UniProt P15273); format: biochemical; settings: read-out: IC50 for inhibition of YOP
Chain of Yersinia protein tyrosine phosphatase (YOP) (P15273 whole entry): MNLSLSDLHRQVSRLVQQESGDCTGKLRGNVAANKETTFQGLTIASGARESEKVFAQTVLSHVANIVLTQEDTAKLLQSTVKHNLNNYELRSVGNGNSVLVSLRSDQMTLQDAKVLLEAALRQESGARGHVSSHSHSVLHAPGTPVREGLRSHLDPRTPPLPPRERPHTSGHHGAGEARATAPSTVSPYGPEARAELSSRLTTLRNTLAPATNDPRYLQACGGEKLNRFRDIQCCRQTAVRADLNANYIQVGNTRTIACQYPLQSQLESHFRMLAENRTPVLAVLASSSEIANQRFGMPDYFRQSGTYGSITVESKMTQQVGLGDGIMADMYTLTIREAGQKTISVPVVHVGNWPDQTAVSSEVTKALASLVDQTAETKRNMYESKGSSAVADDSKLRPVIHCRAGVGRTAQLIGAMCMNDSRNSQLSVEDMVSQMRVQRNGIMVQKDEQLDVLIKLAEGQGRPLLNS

Src kinase = Src kinase (Homo sapiens, UniProt P12931); assay: FRET assay of Src phosphorylation of rhodamine labelled SHPS-1 peptide, read by binding to SHP2-GFP; format: biochemical; settings: 10 μM staurosporine added before the Src enzyme; FIG. 19
Chain of Src kinase (P12931 whole entry, the tested form may be a part): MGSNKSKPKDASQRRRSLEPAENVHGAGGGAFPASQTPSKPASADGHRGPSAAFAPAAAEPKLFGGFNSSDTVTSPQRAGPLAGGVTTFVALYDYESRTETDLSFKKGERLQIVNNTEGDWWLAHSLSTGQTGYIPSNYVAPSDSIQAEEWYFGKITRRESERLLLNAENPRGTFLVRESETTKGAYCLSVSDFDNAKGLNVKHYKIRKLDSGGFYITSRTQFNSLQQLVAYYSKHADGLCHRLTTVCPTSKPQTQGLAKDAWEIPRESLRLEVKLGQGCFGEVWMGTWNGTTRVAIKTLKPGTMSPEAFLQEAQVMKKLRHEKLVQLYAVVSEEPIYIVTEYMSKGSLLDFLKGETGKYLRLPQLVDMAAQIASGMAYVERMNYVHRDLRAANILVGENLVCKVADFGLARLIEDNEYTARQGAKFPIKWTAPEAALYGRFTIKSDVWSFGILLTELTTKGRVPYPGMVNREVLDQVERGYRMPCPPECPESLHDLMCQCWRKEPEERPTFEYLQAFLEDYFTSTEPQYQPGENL
Method: These FRET-based assays are performed to measure Src kinase activity as determined by the Src kinase dependent formation of a complex between the SH2 domain of SHP2 labelled with a fluorophore and an synthetic peptide based on SHPS-1, also labelled with a fluorophore.
Interaction between the tandem SH2 domain of SHP2 and a synthetic peptide based on SHPS-1 is mediated by the state of phosphorylation of the peptide. A FRET partnership can be established between phosphorylated peptide and the SH2 domain providing both moieties are labelled with suitable fluorophores which are brought into close proximity upon interaction of binding partners. […]
SHP2-GFP was diluted to 0.5 μM in assay buffer (50 mM Tris HCL pH 7.2, 10 mM β-mercaptoethanol, 0.5 mg/ml BSA, 0.015% Brij 35). […] Initial readings of the fluorescence of the SHP2-GFP construct were made using 485 nm excitation wavelength and 520 nm emission wavelength. Rhodamine labelled peptide (2 μl of the above phosphorylation reactions) was added to the SHP2-GFP solution and formation of FRET was monitored in real-time by measuring the decrease in fluorescence emission of SHP2-GFP at 520 nm as shown in FIG. 17. […]

[4] = biological target: T2, PKA Peptide 2, labelled with biotin and bound to streptavidin, non-phosphorylated (biotin label (bound to streptavidin in the assay)); assay: fluorescence polarisation of coumarin labelled peptide 1 with biotin labelled peptide 2 on streptavidin
T2 construct: Coiled-coil forming peptide with a PKA phosphorylation site
T2 peptide: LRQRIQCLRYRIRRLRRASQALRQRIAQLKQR

T1 sequence (O14757 whole entry): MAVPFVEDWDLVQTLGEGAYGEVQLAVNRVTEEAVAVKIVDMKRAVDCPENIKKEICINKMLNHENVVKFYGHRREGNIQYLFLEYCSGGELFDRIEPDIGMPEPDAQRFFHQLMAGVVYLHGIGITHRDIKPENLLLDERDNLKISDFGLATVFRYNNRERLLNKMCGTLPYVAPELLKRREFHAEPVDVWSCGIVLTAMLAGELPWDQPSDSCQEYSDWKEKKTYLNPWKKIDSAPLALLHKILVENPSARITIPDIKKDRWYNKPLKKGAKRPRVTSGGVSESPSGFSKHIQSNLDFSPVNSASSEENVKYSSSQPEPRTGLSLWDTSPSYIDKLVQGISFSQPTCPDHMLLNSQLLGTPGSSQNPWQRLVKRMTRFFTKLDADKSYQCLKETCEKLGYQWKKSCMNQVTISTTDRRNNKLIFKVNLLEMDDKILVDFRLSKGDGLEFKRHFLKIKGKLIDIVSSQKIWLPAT

Molecule: O=C(O)CN(CCN(CC(=O)O)CC(=O)O)CC(=O)O [EDTA]
- Inhibition of Chk1 phosphorylation of fluorescein labelled Chktide (real time) (Chk1 protein kinase [1]): inhibition
- Inhibition of Chk1 phosphorylation of Chktide peptide (end point) (Chk1 protein kinase [2]): inhibition

Molecule: [Na+].[Na+].[Na+].[O]=[V]([O-])([O-])[O-] [vanadate, Sodium orthovanadate]
- IC50 [3]: 250 nM

Molecule: CN[C@@H]1C[C@H]2O[C@@](C)([C@@H]1OC)n1c3ccccc3c3c4c(c5c6ccccc6n2c5c31)C(=O)NC4 [staurosporine]
- Inhibition of Src: formation of FRET partnership between SH2 domain of SHP2 and SHPS-1 peptide (Src kinase): failed to form a FRET partnership

B1: PKA Peptide 1, labelled with coumarin, non-phosphorylated (peptide)
peptide: EREIKALEREIRRLRRASQALEREIAQLERE
modifications: also: coumarin label, position not given here
notes: Coiled-coil forming peptide with a PKA phosphorylation site; also called coumarin labelled peptide 1
- binding result [4]: binds
